# Results reported in PubChem BioAssay AID1963958 (Molecular Pharmacology Branch, DTP, NCI, 2024).
# Test system: MDA-MB-231 multicell spheroids, viability
# Assay: Anticancer human tumor MDA-MB-231 cell line growth inhibition [PI3K];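 further: spheroids exposed to agents for seven days before reading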;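 on viability, T/C: percent of vehicle control luminescence with DMSO treated spheroids as 100%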
# Settings: for IC50: curve of first compound; for viability, T/C: stronger effect = lower value
# Procedure, shortened: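 Combination activity was assessed by viability in multicellular tumor spheroids carrying HUVEC and MSC components. Agents were tested with PI3K inhibitors from a Cmax-based top dose (or 10 microM) downward in half-log increments.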
compound,measurement,setting,value
CNC(=O)c1ccc(N2C(=S)N(c3ccc(C#N)c(C(F)(F)F)c3)C(=O)C2(C)C)cc1F + Cc1nc(NC(=O)N2CCCC2C(N)=O)sc1-c1ccnc(C(C)(C)C(F)(F)F)c1,IC50,second compound 0.0316 µM,> 10000 nM
same,IC50,second compound 0.1 µM,> 10000 nM
same,IC50,second compound 0.316 µM,> 10000 nM
same,IC50,second compound 1 µM,> 10000 nM
same,IC50,second compound 3.16 µM,> 10000 nM
same,IC50,second compound 10 µM,> 10000 nM
same,"viability, T/C","second compound 0.0316 µM, first compound 0.0316 µM",100%
same,"viability, T/C","second compound 0.0316 µM, first compound 0.1 µM",94%
same,"viability, T/C","second compound 0.0316 µM, first compound 0.316 µM",93.3%
same,"viability, T/C","second compound 0.0316 µM, first compound 1 µM",95.7%
same,"viability, T/C","second compound 0.0316 µM, first compound 3.16 µM",93.8%
same,"viability, T/C","second compound 0.0316 µM, first compound 10 µM",77.2%
same,"viability, T/C","second compound 0.1 µM, first compound 0.0316 µM",86.1%
same,"viability, T/C","second compound 0.1 µM, first compound 0.1 µM",88.3%
same,"viability, T/C","second compound 0.1 µM, first compound 0.316 µM",89.9%
same,"viability, T/C","second compound 0.1 µM, first compound 1 µM",85.6%
same,"viability, T/C","second compound 0.1 µM, first compound 3.16 µM",76.5%
same,"viability, T/C","second compound 0.1 µM, first compound 10 µM",57.1%
same,"viability, T/C","second compound 0.316 µM, first compound 0.0316 µM",74.3%
same,"viability, T/C","second compound 0.316 µM, first compound 0.1 µM",77.5%
same,"viability, T/C","second compound 0.316 µM, first compound 0.316 µM",74.3%
same,"viability, T/C","second compound 0.316 µM, first compound 1 µM",76.8%
same,"viability, T/C","second compound 0.316 µM, first compound 3.16 µM",77.2%
same,"viability, T/C","second compound 0.316 µM, first compound 10 µM",57.8%
same,"viability, T/C","second compound 1 µM, first compound 0.0316 µM",71.5%
same,"viability, T/C","second compound 1 µM, first compound 0.1 µM",69.8%
same,"viability, T/C","second compound 1 µM, first compound 0.316 µM",68.3%
same,"viability, T/C","second compound 1 µM, first compound 1 µM",65.9%
same,"viability, T/C","second compound 1 µM, first compound 3.16 µM",69.5%
same,"viability, T/C","second compound 1 µM, first compound 10 µM",57.6%
same,"viability, T/C","second compound 3.16 µM, first compound 0.0316 µM",68.4%
same,"viability, T/C","second compound 3.16 µM, first compound 0.1 µM",68.8%
same,"viability, T/C","second compound 3.16 µM, first compound 0.316 µM",68.2%
same,"viability, T/C","second compound 3.16 µM, first compound 1 µM",68.7%
same,"viability, T/C","second compound 3.16 µM, first compound 3.16 µM",66.4%
same,"viability, T/C","second compound 3.16 µM, first compound 10 µM",51.4%
same,"viability, T/C","second compound 10 µM, first compound 0.0316 µM",62.1%
same,"viability, T/C","second compound 10 µM, first compound 0.1 µM",62.5%
same,"viability, T/C","second compound 10 µM, first compound 0.316 µM",63.2%
same,"viability, T/C","second compound 10 µM, first compound 1 µM",66.4%
same,"viability, T/C","second compound 10 µM, first compound 3.16 µM",64.1%
same,"viability, T/C","second compound 10 µM, first compound 10 µM",49.9%
Cn1cnc2c(F)c(Nc3ccc(Br)cc3Cl)c(C(=O)NOCCO)cc21 + Cc1nc(NC(=O)N2CCCC2C(N)=O)sc1-c1ccnc(C(C)(C)C(F)(F)F)c1,IC50,second compound 0.0316 µM,273 nM
same,IC50,second compound 0.1 µM,61.1 nM
same,IC50,second compound 0.316 µM,< 9.49 nM
same,IC50,second compound 1 µM,< 9.49 nM
same,IC50,second compound 3.16 µM,< 9.49 nM
same,IC50,second compound 10 µM,< 9.49 nM
same,"viability, T/C","second compound 0.0316 µM, first compound 0.00949 µM",63.2%
same,"viability, T/C","second compound 0.0316 µM, first compound 0.03 µM",55.5%
same,"viability, T/C","second compound 0.0316 µM, first compound 0.0949 µM",56.7%
same,"viability, T/C","second compound 0.0316 µM, first compound 0.3 µM",47.1%
same,"viability, T/C","second compound 0.0316 µM, first compound 0.949 µM",45.2%
same,"viability, T/C","second compound 0.0316 µM, first compound 3 µM",29.5%
same,"viability, T/C","second compound 0.1 µM, first compound 0.00949 µM",58.1%
same,"viability, T/C","second compound 0.1 µM, first compound 0.03 µM",51.1%
same,"viability, T/C","second compound 0.1 µM, first compound 0.0949 µM",47.8%
same,"viability, T/C","second compound 0.1 µM, first compound 0.3 µM",41.4%
same,"viability, T/C","second compound 0.1 µM, first compound 0.949 µM",40%
same,"viability, T/C","second compound 0.1 µM, first compound 3 µM",26.1%
same,"viability, T/C","second compound 0.316 µM, first compound 0.00949 µM",50.4%
same,"viability, T/C","second compound 0.316 µM, first compound 0.03 µM",43.2%
same,"viability, T/C","second compound 0.316 µM, first compound 0.0949 µM",48.1%
same,"viability, T/C","second compound 0.316 µM, first compound 0.3 µM",40.6%
same,"viability, T/C","second compound 0.316 µM, first compound 0.949 µM",34.3%
same,"viability, T/C","second compound 0.316 µM, first compound 3 µM",22.1%
same,"viability, T/C","second compound 1 µM, first compound 0.00949 µM",44.4%
same,"viability, T/C","second compound 1 µM, first compound 0.03 µM",37.8%
same,"viability, T/C","second compound 1 µM, first compound 0.0949 µM",38.7%
same,"viability, T/C","second compound 1 µM, first compound 0.3 µM",37.4%
same,"viability, T/C","second compound 1 µM, first compound 0.949 µM",33%
same,"viability, T/C","second compound 1 µM, first compound 3 µM",12.6%
same,"viability, T/C","second compound 3.16 µM, first compound 0.00949 µM",48.4%
same,"viability, T/C","second compound 3.16 µM, first compound 0.03 µM",37.1%
same,"viability, T/C","second compound 3.16 µM, first compound 0.0949 µM",36.2%
same,"viability, T/C","second compound 3.16 µM, first compound 0.3 µM",36.1%
same,"viability, T/C","second compound 3.16 µM, first compound 0.949 µM",30.2%
same,"viability, T/C","second compound 3.16 µM, first compound 3 µM",9.65%
same,"viability, T/C","second compound 10 µM, first compound 0.00949 µM",39.2%
same,"viability, T/C","second compound 10 µM, first compound 0.03 µM",32.7%
same,"viability, T/C","second compound 10 µM, first compound 0.0949 µM",31.6%
same,"viability, T/C","second compound 10 µM, first compound 0.3 µM",24.7%
same,"viability, T/C","second compound 10 µM, first compound 0.949 µM",17.9%
same,"viability, T/C","second compound 10 µM, first compound 3 µM",4.43%
